Our source for the melting point values is a melting point compilation (Tetko et al.; mined from patent text by program, amines drawn as free bases though some values may be those of a salt).

In turn, `CN1C(=O)C(C(=O)OCCN2CCOCC2)N=C(c2ccccc2)c2cc(Cl)ccc21` (configuration not stated) had a melting point of 162 to 166 °C.
Regarding `O=c1[nH]c2cc(Cl)ccc2c(NS(=O)(=O)c2ccccc2)c1-c1ccccc1`, the melting point worked out at 268 °C.
Consider `COc1cc2c(c3c1OC(C)(C)C3)C(c1cccnc1)=NC(C)(C)C2`, for which the melting point lay in the range of 113 to 114 °C.
Turning to `Cc1c(C(=O)N(C)Cc2ccc3c(Br)c(OCc4nnn[nH]4)ccc3c2)oc2ccccc12`, the melting point is 164 to 166 °C.
Regarding `CN(C)CCCNC(=O)c1ccc(-c2nnc(CSCCCCOc3ccccc3)o2)cc1`, the melting point was in the range of 87 to 93 °C.
The value for `O=C(Nc1ccc(S(=O)(=O)c2ccccc2)cc1)C(O)(C(F)F)C(F)F` was 105 to 108 °C.
For `COc1cc(COc2cccc(O)c2C)cc(OC)c1`, the melting point lay within 63 to 69 °C.
In turn, `COc1ccc(Br)cc1OCCCCCc1ccc(F)cc1` had a melting point of 46 to 47 °C.
Turning to `Cc1ccc(C)c(OCCCC(=O)O)c1`, the melting point is 63 to 65 °C.
For `OCc1nc2n(n1)-c1ccc(Cl)cc1N(c1ccccc1)C2` the value was 204 to 207 °C.
Compound `COC(=O)c1cc([N+](=O)[O-])c(N2CCSC2=N)c([N+](=O)[O-])c1` yielded a melting point of 138 °C.
As for `O=Cc1cccn1-c1ccc(F)cc1`, the melting point was in the range of 82 to 83 °C.
The value for `CC(C)(C)c1cc(C(C)(C)C)c(Br)c(C(C)(C)C)c1` was 170 to 172 °C.
Compound `O=C1C(c2ccccc2)=C(c2c(Cl)cccc2Cl)C(=O)N1c1ccc(Cl)cc1` yielded a melting point of 134 °C.
The value for `COCCOc1cc(/C=C/C(=O)O)n(Cc2ccc(Cl)cc2Cl)n1` was 171 to 172 °C; that for `CCn1c2ccc(C)cc2c(=O)c2c1cnn2C` was above 300 °C; that for `CCC(=O)c1ccc(SCCCBr)cc1` was 40 to 41 °C.
Turning to `CN1C(=O)C(N)C(=O)N(C23CC4CC(CC(C4)C2)C3)c2ccccc21` (configuration not stated), the melting point is 194 °C.
The value for `CCCCc1c2c(nn1CCCC)c(N)nc1ccccc12` was 143 to 145 °C; that for `Nc1ccc(C#Cc2ccc(OC3CN4CCC3CC4)nn2)cc1` (configuration not stated) was 212 to 220 °C.
`CC(C)(C)c1ccc(-c2ccc(C(CCC(=O)O)=NO)cc2)cc1` registered a melting point of 170 to 172 °C.
For the compound `O=[N+]([O-])C=C(NCc1cccnc1)N1CCCCC1`, the melting point fell in the range of 106 to 108 °C.
In turn, `CCCCCCC(C(=O)N1CCC[C@H]1C(=O)O)n1cnc2cc(-c3ccccc3-c3nn[nH]n3)ccc21` (some centres not stated) returned a melting point of 145 to 150 °C.
For `CCn1c(N)c(C(N)=O)c(=O)c2cnc(Nc3ccc(O)cc3)nc21`, the melting point was above 260 °C.
In turn, `CC(C)(C)NCCNC(=O)Cn1ncc(-c2ccccc2)c1-c1ccccc1` showed a melting point of 115 to 116 °C.
Consider `COC1(c2ccc3ccccc3c2)OOC12C1CC3CC(C1)CC2C3` (configuration not stated), for which the melting point stood at 116 °C.
As for `COC(=O)c1cc(C(=O)OC)cc(S(N)(=O)=O)c1`, the melting point fell in the range of 148 to 150 °C.
On to `CCc1c(OC)cc(OC)c2c1C(=O)N(CSc1nnnn1-c1ccccc1)S2(=O)=O`, for which the melting point lay in the range of 162 to 164 °C.
`O=C(Oc1ccc(-c2ccc(OC(=O)c3cc(O)c(Br)c(O)c3)cc2)cc1)c1ccc(O)c(O)c1` gave a melting point of 252 to 254 °C.
`N#Cc1nn(-c2c(Cl)cc(C(F)(F)F)cc2Cl)c(CO)c1SC(F)(F)F` had a melting point of 118 °C.
The value for `CC(C)C(=O)CC1NC(=O)c2ccsc2-n2cccc21` (configuration not stated) was 160 °C; that for `FC(F)(F)Oc1ccc2[nH]c(-c3cccnc3)nc2c1` was 197 to 199 °C; that for `CC(=O)ONC(=N)c1ccc(-c2ccc(-c3ccc(C(=N)NOC(C)=O)nc3)o2)cc1` was 266 to 268 °C.
In the case of `CCCCCN1C(=O)C2(COc3ccc(-c4cncnc4)cc32)c2ccccc21` (configuration not stated), the melting point lay in the range of 115 to 117 °C.
The value for `CN(C)c1ccc(CNC(=O)CNC(=O)Nc2ccc(C(=N)N)cc2)cc1` was 209 to 214 °C; that for `COC1=C(OC)C(=O)C2=C(CC(CCCCCCCC(=O)O)(C(=O)O)C2)C1=O` was 119 to 123 °C; that for `COC(=O)Cc1c(F)cccc1Cl` was 79 to 80 °C.
With `CC(=O)Nc1ccc2c(c1)CCC(CC#N)C2=O` (configuration not stated), the melting point fell in the range of 189 to 190 °C.
`Cc1cc([N+](=O)[O-])c(C)c2c1OC(C)(C)C2=O` returned a melting point of 124 to 126 °C.
`CCCCc1nc(C(C)(C)O)c(C#N)n1C(c1ccccc1)(c1ccccc1)c1ccccc1` returned a melting point of 151 to 152 °C.
For the compound `C=CCN1CCN(C2N=C(N)OC2C)CC1` (configuration not stated), the melting point came to 99 °C.
Regarding `O=S(=O)(Nc1ccc2c(OCc3ccc(-c4cccc(Cl)c4)cc3)cccc2c1)C(F)(F)F`, the melting point fell in the range of 170 to 171 °C.
Compound `COc1ccc(O)c(C2(NCC(C)=O)Sc3ccccc3N(C)C2=O)c1` (configuration not stated) showed a melting point of 164 to 168 °C.
In turn, `CC(C)CC1(CCCCCl)C(=O)Nc2c(Cl)cc(Cl)cc21` (configuration not stated) showed a melting point of 93 to 94 °C.
As to `O=C(O)c1cc(Br)ccc1Sc1ccccc1`, the melting point is 171 to 173 °C.
In turn, `O=C(O)[C@@H]1CCCN1Cc1cc2cc3c(cc2c2cc(OCc4ccccc4)ccc12)OCO3` yielded a melting point of 147 to 149 °C.
For the compound `Cc1cc(C(C)(C)C)c(O)c(C)c1COC(=O)c1cccc(C(=O)OCc2c(C)cc(C(C)(C)C)c(O)c2C)c1`, the melting point is 155 to 156 °C.
The compound `CC(C)C[C@H](NC(=O)c1ccc(C(=N)N)cc1)C(=O)N1CCc2nn(CC(=O)O)cc2C1` showed a melting point of 165 to 169 °C.
Regarding `CCCCCCCN(CCCCCSc1nc(-c2ccccc2)c(-c2ccccc2)[nH]1)C(=O)NC`, the melting point lay in the range of 93 to 96 °C.
For the compound `OCc1cc(-c2ccc(C(F)(F)F)cc2)on1`, the melting point lay within 111 to 113 °C.
For the compound `CCN(CC)c1ccc2nc(C)c(C#N)c(O)c2c1`, the melting point is above 250 °C.
In turn, `COc1cc2c(cc1O)CC(C)(C)N(C(=O)c1cc(OC)c(OC)c(OC)c1)C2C` (configuration not stated) returned a melting point of 198 to 200 °C.
On to `CS(=O)(=O)c1cc([N+](=O)[O-])cc(O)c1O`, for which the melting point lay in the range of 221 to 224 °C.
As to `CCCC[C@H](OCC[C@]1(C(=O)N2CCC(OCOC)CC2)C=CC=CC1)C(=O)N[C@@H](CC1CCCCC1)[C@@H](O)C(F)(F)CN(C)C`, the melting point fell in the range of 47 to 49 °C.
The value for `Cc1c(C(=O)Cl)ccc(S(C)(=O)=O)c1C1=NOCC1` was 183 to 184 °C.
Turning to `C=C(COc1ccccc1C=O)C(=O)OC`, the melting point lay in the range of 50 to 52 °C.
The value for `O=C1COCCN1c1ccc(N2C[C@@H](CCl)OC2=O)cc1` was 143 to 146 °C; that for `CCCCCC1CC=C(c2ccc(Br)cc2)CC1` (configuration not stated) was 67 to 68 °C.
On to `O=C(COc1ccccc1)NC1C(=O)N2C(C(=O)OCc3ccccc3)N=CSC12` (configuration not stated), for which the melting point was in the range of 142 to 143 °C.
Consider `CSc1ncc2ccc(=O)n(C)c2n1`, for which the melting point lay within 192 to 193 °C.
Compound `OCc1ccccc1CSc1ccccc1` registered a melting point of 64 to 65 °C.
Compound `CCCn1c(=O)c2nc(-c3cccc(/C=C/C(=O)O)c3)[nH]c2n(CC2CCCCC2)c1=O` returned a melting point above 350 °C.
Compound `CN1CCC(c2c[nH]c3ccc(Sc4ccc(Cl)cc4)cc23)CC1` yielded a melting point of 148 to 150 °C.
For `Cc1ccc2oc(-c3ccc(C=Cc4ccc(C(=O)O)cc4)cc3)cc2c1`, the melting point was in the range of 355 to 358 °C.
As for `CC1=NCC2CN=C(c3ccccc3F)c3cc(Cl)ccc3N12` (configuration not stated), the melting point was 142 to 144 °C.
For `NS(=O)(=O)c1cc2nc(O)c(O)nc2c2scnc12`, the melting point was above 400 °C.
`CCCCCCCCCCCCCCNC(=O)Oc1ccc([N+](=O)[O-])cc1OC(=O)NCCCCCCCCCCCCCC` showed a melting point of 100 to 104 °C.
Compound `CC1(OCCN(Cc2ccccc2)C(=O)C(F)(F)F)C=CC=C([N+](=O)[O-])C1NC(=O)C(F)(F)F` (configuration not stated) came in with a melting point of 90 to 92.5 °C.
For `CC(=C(c1ccc(N(C)C)cc1)c1ccc(N(C)C)cc1)P(C1CCCCC1)C1CCCCC1` the value was 159 to 164 °C.
Consider `Cc1c(C)c2c(c(C)c1NC(=O)CC(C)(C)C)C(c1ccc(CCCO)cc1)CO2` (configuration not stated), for which the melting point was in the range of 119 to 120 °C.
Consider `CCCCCCCc1ccc(NC(=O)Nc2ccccc2C(=O)NC2CCN(C(c3ccccc3)c3ccccc3)CC2)cc1`, for which the melting point fell in the range of 173 to 175 °C.
For `CCOC(=O)c1c(Cl)c2ccccc2[nH]c1=O` the value was 186 °C; for `Cc1oc2cc(C3CC(=O)N(C4CC4)C(=O)C3)ccc2c1C`, 180 to 182 °C.
Compound `COc1cc(C)cc(OC)c1C1=NC(NC(=O)Nc2cccc(C)c2)C(=O)N(C)c2ccccc21` (configuration not stated) registered a melting point of 260 °C.
`Cc1sc(-c2cccc(F)c2)nc1O` registered a melting point of 162 to 163 °C.
With `O=c1ccc(Cl)cn1[C@@H]1c2cc([N+](=O)[O-])ccc2OCC[C@H]1O` (relative stereo), the melting point was in the range of 219 to 222 °C.
Compound `CCOC(=O)c1c(C(C)C)c2n(c1-c1ccc(F)cc1)CCCC2` displayed a melting point of 76 to 78 °C.
With `COCCNC(=O)Cc1c(-c2ccc(C)cc2)nc2[nH]c3ccccc3n12`, the melting point lay in the range of 189 to 190 °C.
For `Nc1nc2c(sc(=S)n2C2OC(COC(=O)c3ccccc3)C(OC(=O)c3ccccc3)C2OC(=O)c2ccccc2)c(=O)[nH]1` (configuration not stated) the value was 230 to 233 °C.
In turn, `CC(C)(C)c1cc(CN(C=O)n2ccnc2)cc(C(C)(C)C)c1O` yielded a melting point of 167 °C.
Take `CN(C)c1cccc(OCC(=O)C=P(c2ccccc2)(c2ccccc2)c2ccccc2)c1`: the melting point lay within 110 to 115 °C.
The value for `COC(=O)CCCc1cc2cc(Cl)ccc2n1S(=O)(=O)c1cccc2nc(C)sc12` was 129 °C; that for `c1cc(-c2n[nH]c3c2Cc2ccc(CN4CCSCC4)cc2-3)cs1` was 193 to 195 °C.
As for `Cc1ccc(C(=O)Nc2cn(C3CCCCO3)nc2C(=O)NCCC(F)(F)F)cn1` (configuration not stated), the melting point is 147 to 148 °C.
`Nc1sc2c(c1C(=O)c1cc3ccccc3o1)CCC2` came in with a melting point of 126 to 129 °C.
With `O=C(O)CCCC/C=C(\c1cccnc1)c1ccc2c(c1)OCO2`, the melting point lay within 90 to 91 °C.
As to `Cc1ccc2ccn3c(C(F)(F)F)nnc3c2c1`, the melting point was 205 to 206 °C.

Usually melting point stands for the temperature, or range, at which the solid turns liquid.
